Literature values in patent US9730930B2, “Treatment for vitiligo” (Rigel Pharmaceuticals, Inc., priority 2012, dated 2017).

Tested on: other cytokine (IL-1β and TNFα) signaling

Question: With `C#CCOc1ccc(Nc2nc(Nc3ccc(C)c(S(N)(=O)=O)c3)ncc2F)cc1` [Compound I, N2-(3-aminosulfonyl-4-methylphenyl)-5-fluoro-N4-[4-(prop-2-ynyloxy)phenyl]-2,4-pyrimidinediamine] as the compound, how does the “activity on other cytokine (IL-1β and TNFα) signaling” value read?
Answer: little or no activity
